Reference: ChEMBL document CHEMBL3091339 (J Med Chem, 2013)
Activity calls are given as the source filed them.

Experiments:
Mus musculus [1] = experiment: Anticonvulsant activity in CD-1 mouse assessed as protection against maximal electroshock-induced tonic extension of hind limbs at 100 mg/kg, po after 2 hrs; format: functional, organism-based; set-up: dose 100 mg/kg; conditions: Hindlimb
Mus musculus [2] = experiment: Anticonvulsant activity in CD-1 mouse assessed as protection against maximal electroshock-induced tonic extension of hind limbs at 100 mg/kg, po after 0.5 hrs; format: functional, organism-based; set-up: dose 100 mg/kg; conditions: Hindlimb
Mus musculus [3] = experiment: Anticonvulsant activity in CD-1 mouse assessed as protection against maximal electroshock-induced tonic extension of hind limbs at 300 mg/kg, ip after 0.5 hrs; format: functional, organism-based; set-up: dose 300 mg/kg; conditions: Hindlimb
Mus musculus [4] = experiment: Anticonvulsant activity in CD-1 mouse assessed as protection against maximal electroshock-induced tonic extension of hind limbs at 300 mg/kg, po after 0.5 hrs; format: functional, organism-based; set-up: dose 300 mg/kg; conditions: Hindlimb
Mus musculus [5] = experiment: Anticonvulsant activity in CD-1 mouse assessed as protection against maximal electroshock-induced tonic extension of hind limbs at 300 mg/kg, po after 2 hrs; format: functional, organism-based; set-up: dose 300 mg/kg; conditions: Hindlimb
Mus musculus [6] = experiment: Anticonvulsant activity in intravenous PTZ-induced CF-1 mouse assessed as increase in seizure threshold for twitch at 182 mg/kg, po treated for 15 mins prior to PTZ-challenge relative to control; format: functional
Mus musculus [7] = experiment: Anticonvulsant activity in intravenous PTZ-induced CF-1 mouse assessed as increase in seizure threshold for clonus at 182 mg/kg, po treated for 15 mins prior to PTZ-challenge relative to control; format: functional
[8] = Neurotoxicity in po dosed Sprague-Dawley rat by rotarod test; format: toxicity, organism-based; conditions: in vivo
Carbonic anhydrase 2 = Carbonic anhydrase 2 (Homo sapiens, UniProt P00918)
Description: Inhibition of human carbonic anhydrase 2 by CO2 hydration assay

[9] = target: Voltage-dependent N-type calcium channel subunit alpha-1B (Rattus norvegicus) (UniProt Q02294); experiment: Inhibition of rat Cav2.2-mediated calcium flux expressed in HEK cells at 100 uM at 5 Hz by whole-cell patch-clamp assay relative to control; format: cell-based; conditions: HEK293
Voltage-dependent N-type calcium channel subunit alpha-1B (Rattus norvegicus), sequence (Q02294 whole entry, looked up): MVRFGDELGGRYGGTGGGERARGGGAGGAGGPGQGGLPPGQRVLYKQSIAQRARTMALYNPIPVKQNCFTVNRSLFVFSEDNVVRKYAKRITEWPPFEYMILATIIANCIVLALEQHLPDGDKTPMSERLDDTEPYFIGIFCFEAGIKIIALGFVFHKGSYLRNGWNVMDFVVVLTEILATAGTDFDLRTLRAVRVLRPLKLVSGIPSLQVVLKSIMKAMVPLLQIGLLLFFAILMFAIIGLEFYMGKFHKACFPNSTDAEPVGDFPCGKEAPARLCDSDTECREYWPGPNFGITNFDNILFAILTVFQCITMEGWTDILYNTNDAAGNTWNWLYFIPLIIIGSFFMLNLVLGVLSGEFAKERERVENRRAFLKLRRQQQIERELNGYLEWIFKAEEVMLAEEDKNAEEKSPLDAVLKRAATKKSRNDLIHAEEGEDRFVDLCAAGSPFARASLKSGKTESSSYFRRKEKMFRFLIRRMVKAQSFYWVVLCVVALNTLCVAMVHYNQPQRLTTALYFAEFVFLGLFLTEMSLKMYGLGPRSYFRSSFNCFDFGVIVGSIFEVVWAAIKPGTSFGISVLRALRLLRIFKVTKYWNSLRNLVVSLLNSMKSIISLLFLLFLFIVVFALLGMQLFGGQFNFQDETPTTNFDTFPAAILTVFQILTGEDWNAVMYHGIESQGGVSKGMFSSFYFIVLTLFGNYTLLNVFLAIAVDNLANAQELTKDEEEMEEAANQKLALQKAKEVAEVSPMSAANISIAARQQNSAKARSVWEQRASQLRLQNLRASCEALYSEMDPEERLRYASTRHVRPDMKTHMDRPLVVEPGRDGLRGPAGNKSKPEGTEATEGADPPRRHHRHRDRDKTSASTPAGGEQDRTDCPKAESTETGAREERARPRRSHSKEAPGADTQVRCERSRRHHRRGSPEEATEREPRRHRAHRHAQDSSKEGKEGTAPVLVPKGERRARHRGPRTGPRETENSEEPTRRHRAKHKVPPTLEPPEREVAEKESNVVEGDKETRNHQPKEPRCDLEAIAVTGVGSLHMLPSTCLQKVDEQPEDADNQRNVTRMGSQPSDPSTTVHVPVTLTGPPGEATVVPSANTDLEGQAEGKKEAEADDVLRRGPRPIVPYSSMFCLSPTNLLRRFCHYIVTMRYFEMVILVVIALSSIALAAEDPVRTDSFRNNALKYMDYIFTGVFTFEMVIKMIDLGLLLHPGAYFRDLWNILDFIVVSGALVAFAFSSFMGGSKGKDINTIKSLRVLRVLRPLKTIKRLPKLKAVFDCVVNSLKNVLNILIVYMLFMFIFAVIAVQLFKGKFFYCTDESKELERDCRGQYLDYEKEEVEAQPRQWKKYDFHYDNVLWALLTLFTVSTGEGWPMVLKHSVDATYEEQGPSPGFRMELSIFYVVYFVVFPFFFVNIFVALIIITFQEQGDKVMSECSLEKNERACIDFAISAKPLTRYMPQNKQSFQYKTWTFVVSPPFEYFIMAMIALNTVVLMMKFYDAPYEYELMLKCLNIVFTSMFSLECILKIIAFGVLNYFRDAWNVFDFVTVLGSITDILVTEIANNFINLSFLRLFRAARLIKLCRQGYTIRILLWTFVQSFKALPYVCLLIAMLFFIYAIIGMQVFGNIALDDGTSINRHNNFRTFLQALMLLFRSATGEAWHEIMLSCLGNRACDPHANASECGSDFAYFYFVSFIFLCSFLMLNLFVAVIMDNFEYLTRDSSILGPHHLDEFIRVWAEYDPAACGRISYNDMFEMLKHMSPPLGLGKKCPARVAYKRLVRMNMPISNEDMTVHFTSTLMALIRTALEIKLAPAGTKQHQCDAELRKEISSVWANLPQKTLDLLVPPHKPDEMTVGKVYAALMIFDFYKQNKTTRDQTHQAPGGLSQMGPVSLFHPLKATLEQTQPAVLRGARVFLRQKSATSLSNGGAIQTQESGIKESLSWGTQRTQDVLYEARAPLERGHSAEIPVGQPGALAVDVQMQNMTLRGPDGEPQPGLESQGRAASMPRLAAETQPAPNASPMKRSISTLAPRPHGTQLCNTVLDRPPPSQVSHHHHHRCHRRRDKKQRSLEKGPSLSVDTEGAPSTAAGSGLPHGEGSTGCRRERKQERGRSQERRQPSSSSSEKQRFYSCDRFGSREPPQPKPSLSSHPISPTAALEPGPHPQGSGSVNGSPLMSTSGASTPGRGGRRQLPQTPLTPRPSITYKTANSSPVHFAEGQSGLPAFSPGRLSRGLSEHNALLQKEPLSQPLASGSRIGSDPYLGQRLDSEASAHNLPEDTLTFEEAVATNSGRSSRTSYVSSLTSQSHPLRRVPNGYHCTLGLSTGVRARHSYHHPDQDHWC

[10] = Half life in rat at 10 mg/kg, po; format: ADME, organism-based; set-up: dose 10 mg/kg, route oral; conditions: in vivo
[11] = target: Sodium channel protein type 2 subunit alpha (Rattus norvegicus) (UniProt P04775); conditions: CHL1610
Sodium channel protein type 2 subunit alpha (Rattus norvegicus), sequence (P04775 whole entry, looked up): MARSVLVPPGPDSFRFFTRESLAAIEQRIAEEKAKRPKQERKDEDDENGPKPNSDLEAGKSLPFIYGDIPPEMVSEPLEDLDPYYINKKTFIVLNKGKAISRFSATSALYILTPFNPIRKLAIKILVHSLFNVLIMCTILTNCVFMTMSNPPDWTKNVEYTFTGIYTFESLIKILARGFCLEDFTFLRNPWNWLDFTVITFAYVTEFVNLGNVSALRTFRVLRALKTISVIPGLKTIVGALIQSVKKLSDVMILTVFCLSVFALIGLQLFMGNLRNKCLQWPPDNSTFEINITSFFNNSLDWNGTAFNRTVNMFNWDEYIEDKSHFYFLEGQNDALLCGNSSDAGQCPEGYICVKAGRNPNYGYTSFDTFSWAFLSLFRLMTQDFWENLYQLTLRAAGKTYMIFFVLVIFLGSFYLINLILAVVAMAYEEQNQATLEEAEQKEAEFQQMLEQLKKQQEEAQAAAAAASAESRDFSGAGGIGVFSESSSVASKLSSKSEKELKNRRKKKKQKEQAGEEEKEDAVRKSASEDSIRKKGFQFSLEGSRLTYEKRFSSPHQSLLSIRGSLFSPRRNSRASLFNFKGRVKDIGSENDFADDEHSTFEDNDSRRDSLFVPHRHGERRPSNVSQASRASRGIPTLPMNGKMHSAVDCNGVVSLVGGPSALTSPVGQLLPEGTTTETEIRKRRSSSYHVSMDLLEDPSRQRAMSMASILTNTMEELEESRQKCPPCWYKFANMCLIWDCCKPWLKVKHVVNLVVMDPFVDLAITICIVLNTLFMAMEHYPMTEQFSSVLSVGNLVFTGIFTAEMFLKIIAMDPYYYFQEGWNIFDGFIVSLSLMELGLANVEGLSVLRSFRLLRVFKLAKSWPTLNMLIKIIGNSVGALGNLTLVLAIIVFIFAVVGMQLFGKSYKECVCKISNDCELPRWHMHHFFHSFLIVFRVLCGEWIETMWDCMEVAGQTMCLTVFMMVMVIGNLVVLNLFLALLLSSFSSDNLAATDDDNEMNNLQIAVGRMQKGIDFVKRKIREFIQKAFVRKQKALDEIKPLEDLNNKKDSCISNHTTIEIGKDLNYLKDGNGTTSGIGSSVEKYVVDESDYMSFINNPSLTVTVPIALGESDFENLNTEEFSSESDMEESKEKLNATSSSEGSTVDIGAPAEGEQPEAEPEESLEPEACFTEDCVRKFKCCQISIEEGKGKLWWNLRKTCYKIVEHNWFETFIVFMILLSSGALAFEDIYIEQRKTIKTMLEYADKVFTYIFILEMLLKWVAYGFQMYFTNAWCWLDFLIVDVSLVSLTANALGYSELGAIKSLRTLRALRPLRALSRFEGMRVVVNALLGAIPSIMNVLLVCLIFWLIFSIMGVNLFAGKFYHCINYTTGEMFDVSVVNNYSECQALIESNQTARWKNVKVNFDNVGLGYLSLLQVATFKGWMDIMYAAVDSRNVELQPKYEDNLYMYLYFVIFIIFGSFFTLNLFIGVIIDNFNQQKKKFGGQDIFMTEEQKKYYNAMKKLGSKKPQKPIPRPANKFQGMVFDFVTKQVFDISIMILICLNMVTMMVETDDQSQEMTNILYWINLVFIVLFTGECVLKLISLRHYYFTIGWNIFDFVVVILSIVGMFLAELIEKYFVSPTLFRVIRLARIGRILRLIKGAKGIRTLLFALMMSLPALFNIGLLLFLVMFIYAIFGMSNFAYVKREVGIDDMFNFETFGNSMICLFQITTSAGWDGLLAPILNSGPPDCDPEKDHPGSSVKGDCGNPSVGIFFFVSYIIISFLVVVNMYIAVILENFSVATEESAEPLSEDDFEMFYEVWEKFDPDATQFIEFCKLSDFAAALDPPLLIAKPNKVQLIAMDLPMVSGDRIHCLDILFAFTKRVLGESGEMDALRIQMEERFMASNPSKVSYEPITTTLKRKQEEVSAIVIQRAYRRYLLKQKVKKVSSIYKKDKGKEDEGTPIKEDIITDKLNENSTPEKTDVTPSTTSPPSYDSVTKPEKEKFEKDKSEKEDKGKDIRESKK

Homo sapiens [12] = species: Homo sapiens; experiment: Binding affinity to GABA (unknown origin) at 10 uM
[13] = target: Sodium-dependent dopamine transporter (Homo sapiens) (UniProt Q01959); experiment: Binding affinity to dopamine transporter (unknown origin)
[14] = Clearance in rat at 2 mg/kg, iv; format: ADME, organism-based; set-up: dose 2 mg/kg, route intravenous; conditions: in vivo
[15] = target: Voltage-dependent N-type calcium channel subunit alpha-1B (Rattus norvegicus) (UniProt Q02294); experiment: Inhibition of rat Cav2.2-mediated calcium flux expressed in HEK cells at 100 uM at 0.07 Hz by whole-cell patch-clamp assay relative to control; format: cell-based; conditions: HEK293
Liver microsome = experiment: Drug metabolism in human liver microsomes assessed as hydroxylation metabolite formation by LC-MS/MS analysis; format: ADME
[16] = Neurotoxicity in rat by muscle tone test; format: toxicity, organism-based, Muscle tissue; conditions: in vivo
in vivo [17] = conditions: beagle, dog, po, 10 mg/kg
[18] = Cmax in rat at 10 mg/kg, po; format: ADME, organism-based; set-up: dose 10 mg/kg, route oral; conditions: in vivo
Rattus norvegicus [19] = experiment: Anticonvulsant activity in ip dosed Sprague-Dawley rat hippocampal kindling model assessed as reduction in global seizures treated 15 for mins post suprathreshold-stimulation; format: functional, organism-based; conditions: Hippocampus
[20] = target: T1, Voltage-dependent N-type calcium channel subunit alpha-1B (Rattus norvegicus, UniProt Q02294)
T1 sequence (Q02294 whole entry): as the sequence (Q02294 whole entry, looked up) above
Description: Inhibition of rat Cav2.2-mediated calcium flux expressed in HEK cells by FDSS assay

[21] = target: T1, Voltage-dependent N-type calcium channel subunit alpha-1B; remark: listed apart in the source
Description: Inhibition of rat Cav2.2-mediated calcium flux expressed in HEK cells at 0.07 Hz by whole-cell patch-clamp assay

[22] = Neurotoxicity in rat by positional sense test; format: toxicity, organism-based; conditions: in vivo
Mus musculus [23] = experiment: Anticonvulsant activity in intravenous PTZ-induced CF-1 mouse assessed as increase in seizure threshold for twitch at […], ip treated for 15 mins prior to PTZ-challenge relative to control; format: functional
[24] = AUC in beagle dog at 10 mg/kg, po; format: ADME, organism-based, Canis lupus familiaris; set-up: dose 10 mg/kg, route oral; conditions: plasma
[25] = Clearance in beagle dog at 2 mg/kg, iv; format: ADME, organism-based, Canis lupus familiaris; set-up: dose 2 mg/kg, route intravenous; conditions: in vivo
Canis familiaris = experiment: Oral bioavailability in beagle dog at 10 mg/kg; format: ADME, organism-based, Canis lupus familiaris; conditions: in vivo
Mus musculus [26] = experiment: Anticonvulsant activity in intravenous PTZ-induced CF-1 mouse assessed as increase in seizure threshold for clonus at […], ip treated for 15 mins prior to PTZ-challenge relative to control; format: functional
[27] = target: T2, 5-hydroxytryptamine receptor 2C (Homo sapiens) (UniProt P28335); experiment: Binding affinity to 5HT2C receptor (unknown origin)
T2 sequence (whole entry): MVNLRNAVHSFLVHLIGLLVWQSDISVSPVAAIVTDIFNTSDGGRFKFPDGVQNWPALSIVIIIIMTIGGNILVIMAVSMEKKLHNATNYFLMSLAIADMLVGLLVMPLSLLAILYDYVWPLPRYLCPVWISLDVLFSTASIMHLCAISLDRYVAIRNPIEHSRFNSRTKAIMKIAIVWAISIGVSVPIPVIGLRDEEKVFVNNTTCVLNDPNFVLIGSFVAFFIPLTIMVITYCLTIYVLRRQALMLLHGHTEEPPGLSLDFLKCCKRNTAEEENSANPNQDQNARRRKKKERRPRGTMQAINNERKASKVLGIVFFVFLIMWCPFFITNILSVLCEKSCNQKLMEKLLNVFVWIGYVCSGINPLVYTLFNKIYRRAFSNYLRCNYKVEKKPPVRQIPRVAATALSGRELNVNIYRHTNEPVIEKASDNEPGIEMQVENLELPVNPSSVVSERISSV

[28] = Volume of distribution at steady state in beagle dog at 2 mg/kg, iv; format: ADME, organism-based, Canis lupus familiaris; set-up: dose 2 mg/kg, route intravenous; conditions: in vivo, read-out: Vdss
Carbonic anhydrase 1 = Carbonic anhydrase 1 (Homo sapiens, UniProt P00915); experiment: Inhibition of carbonic anhydrase 1 (unknown origin)
Carbonic anhydrase 1, sequence (P00915 whole entry): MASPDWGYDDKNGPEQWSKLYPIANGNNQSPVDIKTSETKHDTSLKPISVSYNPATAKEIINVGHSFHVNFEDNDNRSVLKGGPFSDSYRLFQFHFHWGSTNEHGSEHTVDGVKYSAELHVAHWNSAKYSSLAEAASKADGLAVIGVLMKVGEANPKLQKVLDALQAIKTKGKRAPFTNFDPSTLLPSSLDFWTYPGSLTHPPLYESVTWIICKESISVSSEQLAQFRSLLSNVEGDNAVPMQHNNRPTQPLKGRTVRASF

in vivo [29] = conditions: rat, po, 10 mg/kg
[30] = Volume of distribution at steady state in rat at 2 mg/kg, iv; format: ADME, organism-based; set-up: dose 2 mg/kg, route intravenous; conditions: in vivo, read-out: Vdss
[31] = target: Histamine H1 receptor (Homo sapiens) (UniProt P35367); experiment: Inhibition of histamine H1 receptor (unknown origin) at 10 uM relative to control
Histamine H1 receptor (Homo sapiens), sequence (P35367 whole entry): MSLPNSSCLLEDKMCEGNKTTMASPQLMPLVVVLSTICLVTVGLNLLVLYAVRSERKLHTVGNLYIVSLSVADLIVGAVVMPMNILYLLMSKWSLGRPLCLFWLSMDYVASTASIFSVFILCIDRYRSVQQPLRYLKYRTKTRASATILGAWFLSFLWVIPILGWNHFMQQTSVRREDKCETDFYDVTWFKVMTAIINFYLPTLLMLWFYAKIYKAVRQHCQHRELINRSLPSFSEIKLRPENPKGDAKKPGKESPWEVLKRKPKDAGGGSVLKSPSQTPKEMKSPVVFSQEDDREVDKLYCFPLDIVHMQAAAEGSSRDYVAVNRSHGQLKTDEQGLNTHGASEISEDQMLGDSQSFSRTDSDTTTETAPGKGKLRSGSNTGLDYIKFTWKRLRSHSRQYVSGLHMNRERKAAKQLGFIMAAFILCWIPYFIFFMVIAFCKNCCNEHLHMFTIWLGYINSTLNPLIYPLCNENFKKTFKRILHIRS

Homo sapiens [32] = species: Homo sapiens; experiment: Binding affinity to central-type benzodiazepine receptor (unknown origin) at 10 uM
[33] = target: Sodium channel protein type 2 subunit alpha (Rattus norvegicus, UniProt P04775); experiment: Inhibition of rat Nav1.2 expressed in CHL1610 cells at -67 mV after 2 to 3 mins by whole-cell patch-clamp assay; format: cell-based
[34] = Half life in beagle dog at 10 mg/kg, po; format: ADME, organism-based, Canis lupus familiaris; set-up: dose 10 mg/kg, route oral; conditions: in vivo
Homo sapiens [35] = species: Homo sapiens; experiment: Binding affinity to chloride channel (unknown origin) at 10 uM
[36] = Cmax in beagle dog at 10 mg/kg, po; format: ADME, organism-based, Canis lupus familiaris; set-up: dose 10 mg/kg, route oral; conditions: in vivo
Rattus norvegicus [37] = experiment: Oral bioavailability in rat at 10 mg/kg; format: ADME, organism-based; conditions: in vivo
[38] = target: Sodium channel protein type 2 subunit alpha (Rattus norvegicus) (UniProt P04775); format: cell-based; conditions: CHL1610
Rattus norvegicus [39] = experiment: Anticonvulsant activity in ip dosed Sprague-Dawley rat hippocampal kindling model assessed as effect on after discharge duration treated 15 for mins post suprathreshold-stimulation; format: functional, organism-based; conditions: Hippocampus
Mus musculus [40] = species: Mus musculus; experiment: animal or person; conditions: CF-1, Hindlimb, po, 2 h
Description: Anticonvulsant activity in po dosed CF-1 mouse assessed as protection against maximal electroshock-induced tonic extension of hind limbs measured at 2 hrs

Rattus norvegicus [41] = experiment: Anticonvulsant activity in ip dosed Sprague-Dawley rat hippocampal kindling model assessed as suppression of seizure activity treated 15 for mins post suprathreshold-stimulation; format: functional, organism-based; conditions: Hippocampus
Mus musculus [42] = species: Mus musculus
Description: Anticonvulsant activity in po dosed CF-1 mouse assessed as protection against maximal electroshock-induced tonic extension of hind limbs measured at 1 hr

NS(=O)(=O)NCC1Oc2ccccc2O1
Activity (Mus musculus [1]): inactive | Activity (Mus musculus [2]): Active | Activity (Mus musculus [3]): Active

NS(=O)(=O)NCCC1COc2ccccc2O1 (configuration not stated)
Activity (Mus musculus [4]): Active | Activity (Mus musculus [1]): inactive | Activity (Mus musculus [2]): inactive | Activity (Mus musculus [5]): inactive

NS(=O)(=O)NC[C@H]1COc2c(F)cccc2O1
Activity (Mus musculus [1]): inactive | Activity (Mus musculus [5]): Active

NS(=O)(=O)NC[C@H]1COc2cc(Br)ccc2O1
Activity (Mus musculus [4]): inactive | Activity (Mus musculus [5]): Active

NS(=O)(=O)NC[C@H]1COc2cc(Cl)c(Cl)cc2O1
Activity (Mus musculus [2]): inactive

NS(=O)(=O)NC[C@H]1COc2cc(F)ccc2O1
Activity (Mus musculus [5]): Active

NS(=O)(=O)NC[C@H]1COc2cccc(Cl)c2O1
Activity (Mus musculus [1]): inactive

NS(=O)(=O)NCC1COc2ccccc2O1 (racemic)
Activity (Mus musculus [6]): 41% | Activity (Mus musculus [7]): 59% | TD50 [8]: 182 mg/kg | Activity (Mus musculus [3]): Active

CN(C)S(=O)(=O)NCC1COc2ccccc2O1 (racemic)
Activity (Mus musculus [5]): inactive | IC50 (Carbonic anhydrase 2): > 1000 µM

CN(CC1COc2ccccc2O1)S(N)(=O)=O (racemic)
Activity (Mus musculus [4]): Active

NS(=O)(=O)NC[C@H]1COc2cc(Cl)ccc2O1 [JNJ-26489112]
inhibition [9]: 53% | Activity (Mus musculus [2]): inactive | half-life [10]: 8.2 h | inhibition [11]: Dose-dependent effect | inhibition (Homo sapiens [12]): inactive | INH [13]: 16 µM | clearance [14]: 1.6 mL/min/kg | inhibition [15]: 37% | Drug metabolism (Liver microsome): Active | NOAEL [16]: 500 mg/kg | Tmax (in vivo [17]): 0.917 h | Cmax [18]: 9090 ng/mL | Activity (Rattus norvegicus [19]): Active | IC50 [20]: 34 µM | IC50 [21]: 70 µM | NOAEL [22]: 500 mg/kg | Activity (Mus musculus [23]): 80% | AUC [24]: 212 µg·h/mL | clearance [25]: 0.5 mL/min/kg | F (Canis familiaris): 83% | Activity (Mus musculus [26]): 232% | INH [27]: 29 µM | Vd [28]: 0.63 L/kg | Activity (Mus musculus [5]): Active | IC50 (Carbonic anhydrase 1): 18 µM | Ki (Carbonic anhydrase 1): 2.2 µM | Tmax (in vivo [29]): 0.883 h | Vd [30]: 0.39 L/kg | inhibition [31]: 23% | inhibition (Homo sapiens [32]): inactive | IC50 [33]: 36 µM | half-life [34]: 20 h | inhibition (Homo sapiens [35]): inactive | Cmax [36]: 11500 ng/mL | F (Rattus norvegicus [37]): 95% | inhibition [38]: inactive | Activity (Rattus norvegicus [39]): inactive

O=C1NC(=O)C(c2ccccc2)(c2ccccc2)N1 [PHENYTOIN]
ED50 (Mus musculus [40]): 9 mg/kg | Activity (Rattus norvegicus [41]): Active

CC1(C)O[C@@H]2[C@@H](CO[C@@]3(COS(N)(=O)=O)OC(C)(C)O[C@@H]23)O1 [TOPIRAMATE]
Activity (Rattus norvegicus [41]): inactive | ED50 (Mus musculus [42]): 43.8 mg/kg
